Measurements published in patent US7772252B2, “Heterocyclic substituted carbonyl derivatives and their use as dopamine D3 receptor ligands” (Aventis Pharmaceuticals Inc., priority 2001, dated 2010).

Target: T1, cloned human dopamine D3 receptors (Homo sapiens, UniProt P35462)
T1 construct: expressed in transfected cells; membrane homogenate
Experiment: [N-Methyl-3H]Spiroperidol binding to cloned human dopamine D3 receptors
Conditions: read-out: D3 Ki
Procedure, shortened: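 Stably transfected CHO cells expressing cloned human D3 receptor were used as membranes homogenized in 10% DMSO. Ligand was [N-methyl-3H]spiroperidol displacement.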

T1 sequence (P35462 whole entry): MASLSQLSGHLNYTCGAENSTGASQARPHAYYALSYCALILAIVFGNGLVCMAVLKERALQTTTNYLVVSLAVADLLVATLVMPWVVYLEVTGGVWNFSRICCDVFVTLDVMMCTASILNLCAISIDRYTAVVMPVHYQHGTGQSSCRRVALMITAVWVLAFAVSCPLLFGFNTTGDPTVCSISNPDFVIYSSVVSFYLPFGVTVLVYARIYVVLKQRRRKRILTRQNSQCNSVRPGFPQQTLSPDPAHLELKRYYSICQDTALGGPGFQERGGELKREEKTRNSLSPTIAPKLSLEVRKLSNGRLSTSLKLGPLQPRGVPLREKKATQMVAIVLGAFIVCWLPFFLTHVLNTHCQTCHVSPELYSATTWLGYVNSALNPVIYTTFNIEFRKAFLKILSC

Structure (SMILES)	Ki
O=C(NCCc1ccccc1)C1(CCN2CCC(c3noc4ccsc34)CC2)CC1 [compound 832180]	91 nM
O=C(NCC1CCNCC1)[C@@H]1C[C@H]1CN1CCC(c2noc3c(C(F)(F)F)cccc23)CC1 [A002440437A]	41.2 nM
O=C([C@@H]1C[C@H]1CN1CCN(c2csc3cc(C(F)(F)F)ccc23)CC1)N1CCCC(Cn2ccnc2)C1 (mixture of isomers) [compound 832268]	2.62 nM
CC[C@H]1CC[C@H](NC(=O)[C@@H]2C[C@H]2CN2CCN(c3nn(-c4ccc(C(F)(F)F)cc4)c4ccccc34)CC2)CC1 [compound 831226]	26.7 nM
O=C(NC1CCCCC1)[C@H](O)CCN1CCC(c2noc3ccsc23)CC1 [compound 830573]	547 nM
O=C(NCCc1c[nH]c2cc(F)ccc12)[C@@H]1C[C@H]1CN1CCC(c2noc3ccsc23)CC1 [compound 830831]	3.19 nM
COc1cccc2c(C3CCN(C[C@@H]4C[C@H]4C(=O)N4CCC[C@@H](Cn5ccnc5)C4)CC3)noc12 [A002437359, (3S-Imidazol-1-ylmethyl-piperidin-1-yl)-{2R-[4-(7-methoxy-benzo[d]isoxazol-3-yl)-piperidin-1-ylmethyl]-1R-cyclopropyl}-methanone]	0.541 nM
COc1c(F)ccc2c(C3CCN(C[C@@H]4C[C@H]4C(=O)N[C@H]4CC[C@H](C)CC4)CC3)noc12 [compound 831361, 2R-[4-(6-Fluoro-7-methoxy-benzo[d]isoxazol-3-yl)-piperidin-1-ylmethyl]-1R-cyclopranecarboxylic acid (trans-4-methyl-cyclohexyl)-amide]	1.75 nM
C=CCN1CCN(C(=O)C2CC2CN2CCC(c3noc4ccsc34)CC2)CC1 (racemic) [compound 832189]	58.5 nM
CN1C2CCC1CC(NC(=O)[C@@H]1C[C@H]1CN1CCN(c3csc4cc(C(F)(F)F)ccc34)CC1)C2 (stereo partly drawn) [A002439099]	4.91 nM
Cc1nc(Cl)c(Cl)n1CCCNC(=O)[C@@H]1C[C@H]1CN1CCN(c2csc3cc(C(F)(F)F)ccc23)CC1 [compound 832512]	15.7 nM
O=C(N[C@H]1CC[C@H](O)CC1)[C@@H]1C[C@H]1CN1CCC(c2nn(-c3ccc(C(F)(F)F)cc3)c3ccccc23)CC1 [compound 831953]	37.4 nM
O=C([C@@H]1C[C@H]1CN1CCC(c2cc3ccccc3s2)CC1)N1CCC(N2CCCC2)CC1 [compound 832715]	166 nM
O=C(C1CC1CN1CCC(c2noc3ccsc23)CC1)N1CCC(Oc2ccc(Cl)cc2)CC1 (racemic) [compound 831794]	27.3 nM
O=C(C1CC1CN1CCC(c2noc3ccsc23)CC1)N1CCC(n2c(=O)[nH]c3ccccc32)CC1 (racemic) [compound 831737]	1.25 nM
Cn1nc(C2CCN(C[C@@H]3C[C@H]3C(=O)NCC3CCNCC3)CC2)c2ccc(C(F)(F)F)cc21 [A002436288A]	106 nM
O=C(NC1CCN(Cc2cc(F)cc(F)c2)CC1)C1CC1CN1CCC(c2noc3ccsc23)CC1 (racemic) [compound 832343]	0.718 nM
O=C(NCCCN1CCSCC1)[C@@H]1C[C@H]1CN1CCN(c2nn(-c3ccc(C(F)(F)F)cc3)c3ccsc23)CC1 [compound 834206]	88.8 nM
O=C([C@@H]1C[C@H]1CN1CCN(c2csc3cc(F)ccc23)CC1)N1CCC(O)CC1 [compound 828716]	2.38 nM
O=C(NCCCN1CCCCC1)[C@@H]1C[C@H]1CN1CCC(c2noc3c(C(F)(F)F)cccc23)CC1 [compound 832272]	145 nM
Cc1ccc(CCNC(=O)C2CC2CN2CCC(c3noc4ccsc34)CC2)cc1 (racemic) [compound 831803]	7.44 nM
O=C(C1CC1CN1CCC(c2noc3ccsc23)CC1)N1CC=CC1 (racemic) [compound 829594]	364 nM
Cn1nc(C2CCN(C[C@@H]3C[C@H]3C(=O)N3CCC[C@@H](Cn4ccnc4)C3)CC2)c2cccc(C(F)(F)F)c21 [A002439260]	0.303 nM

Structure (SMILES)	Ki
O=C(NCCCn1ccnc1)[C@@H]1C[C@H]1CN1CCC(c2noc3ccsc23)CC1 [compound 829596]	4.41 nM
O=C(NCCCc1ccn(S(=O)(=O)c2ccccc2)c1)C1CC1CN1CCC(c2noc3ccsc23)CC1 (racemic) [compound 832185]	7.87 nM
O=C(NNC(=O)C1CC1CN1CCC(c2noc3ccsc23)CC1)c1ccc(Cl)cc1 (racemic) [compound 831812]	453 nM
O=C(NCCCN1CCOCC1)C1(CCN2CCC(c3noc4ccsc34)CC2)CC1 [compound 832240]	186 nM
O=C([C@@H]1C[C@H]1CN1CCC(c2noc3ccsc23)CC1)N1CCc2ccccc2C1 [compound 831199]	2.78 nM
O=C(C1CC1CN1CCC(c2noc3ccsc23)CC1)N1CCC(c2cc(-c3cccs3)[nH]n2)CC1 (racemic) [compound 831703]	45 nM
O=C(NCc1ccc(-c2ccccc2)cc1)C1CC1CN1CCC(c2noc3ccsc23)CC1 (racemic) [compound 831455]	6.79 nM
O=C(NC1CCN(Cc2ccc(F)cc2F)CC1)[C@@H]1C[C@H]1CN1CCN(c2csc3cc(C(F)(F)F)ccc23)CC1 [compound 833516]	21.7 nM
CN(C)CCN1CCN(C(=O)[C@@H]2C[C@H]2CN2CCN(c3csc4cc(C(F)(F)F)ccc34)CC2)CC1 [compound 832580]	28.8 nM
O=C([C@@H](O)CCN1CCC(c2noc3ccsc23)CC1)N1CCCCC1 [compound 830557]	97.4 nM
C[C@H]1CC[C@H](NC(=O)[C@@H]2C[C@H]2CN2CCC(c3n[nH]c4ccc(C(F)(F)F)cc34)CC2)CC1 [compound 833934]	0.633 nM
O=C([C@@H]1C[C@H]1CN1CCC(c2noc3ccsc23)CC1)N1CCCC(Cn2ccnc2)C1 (mixture of isomers) [compound 832269]	5.1 nM
COc1ccc2[nH]nc(N3CCN(C[C@@H]4C[C@H]4C(=O)N[C@H]4CC[C@H](C)CC4)CC3)c2c1 [compound 833704]	2.3 nM
O=C(NC1CCN(Cc2cc(F)ccc2F)CC1)[C@@H]1C[C@H]1CN1CCN(c2nn(-c3ccc(OC(F)(F)F)cc3)c3ccsc23)CC1 [A002437082]	9.23 nM
O=C(NCCc1c[nH]c2ccccc12)[C@@H]1C[C@H]1CN1CCC(c2noc3ccsc23)CC1 [compound 830830]	2.58 nM
O=C([C@@H]1C[C@H]1CN1CCC(c2csc3cc(C(F)(F)F)ccc23)CC1)N1CCCC(Cn2ccnc2)C1 (mixture of isomers) [A002287512]	0.647 nM
O=C([C@@H]1C[C@H]1CN1CCN(c2csc3cc(C(F)(F)F)ccc23)CC1)N1CCC[C@H](CN2CCCCC2)C1 [A002438638]	3.28 nM
O=C(NCCc1cccc(F)c1)[C@@H]1C[C@H]1CN1CCC(c2noc3ccsc23)CC1 [compound 832726]	7.05 nM
O=C(NCCCn1ccnc1)[C@@H]1C[C@H]1CN1CCC(c2noc3cc(C(F)(F)F)ccc23)CC1 [A002287765, 2R-[4-(6-Trifluoromethyl-benzo[d]isoxazol-3-yl)-piperidin-1-ylmethyl]-1R-cycloproanecarboxylic acid (3-imidazol-1-yl-propyl)-amide]	0.011 nM
O=C([C@@H]1C[C@H]1CN1CCC(c2noc3c(C(F)(F)F)cccc23)CC1)N1CCCC(Cn2ccnc2)C1 (mixture of isomers) [compound 833911]	1.26 nM
O=C([C@@H]1C[C@H]1CN1CCN(c2csc3cc(C(F)(F)F)ccc23)CC1)N1CCC[C@@H](CO)C1 [A002438637]	21.2 nM
CCCCn1nc(N2CCN(C[C@@H]3C[C@H]3C(=O)NCCCn3ccnc3)CC2)c2sccc21 [A002202401]	205 nM
